Data: paper PMC5379747, “Structural basis for a novel type of cytokinin-activating protein” (Scientific Reports, 2017)
Each block holds one compound with its values, some of them ahead of it.

Columns and labels:
[1] = target: T1, Cg1261 (CgLOGII, CgLOGIIF) (Corynebacterium glutamicum, UniProt Q8NRE2, D177A); test: TLC detection of adenine released from AMP; assay type: biochemical; settings: 20 mM AMP, 36 mM Tris-HCl pH 8.0, 23 μM enzyme, 6 h
T1 construct: gene Cgl1110; full length, pET30a with C-terminal 6xHis, E. coli BL21(DE3), hexamer; residues 1-39 disordered in crystal
T1 sequence (Q8NRE2 entry or part of it D177A): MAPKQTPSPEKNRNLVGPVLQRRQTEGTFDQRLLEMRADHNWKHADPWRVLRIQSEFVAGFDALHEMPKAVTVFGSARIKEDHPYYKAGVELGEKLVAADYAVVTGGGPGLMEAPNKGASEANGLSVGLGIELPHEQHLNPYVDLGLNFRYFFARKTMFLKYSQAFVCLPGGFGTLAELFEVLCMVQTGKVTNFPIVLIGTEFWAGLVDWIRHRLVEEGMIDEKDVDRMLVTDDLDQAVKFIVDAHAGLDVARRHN

[2] = target: T2, Tt1465 (TtLOGII) (Thermus thermophilus, UniProt Q5SHT6); test: TLC detection of adenine released from AMP; assay type: biochemical; settings: 20 mM AMP, 36 mM Tris-HCl pH 8.0, 23 μM enzyme, 65 °C
T2 construct: gene TTHA1644; recombinant, prepared similarly to CgLOGII; hexamer
T2 sequence (Q5SHT6 1-217): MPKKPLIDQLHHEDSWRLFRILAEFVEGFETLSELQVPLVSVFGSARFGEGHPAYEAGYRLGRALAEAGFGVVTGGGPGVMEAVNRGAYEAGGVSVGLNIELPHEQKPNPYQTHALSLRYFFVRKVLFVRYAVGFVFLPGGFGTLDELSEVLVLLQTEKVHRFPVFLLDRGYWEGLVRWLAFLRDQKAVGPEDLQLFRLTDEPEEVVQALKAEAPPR

[3] = target: T3, Cg1261 (CgLOGII, CgLOGIIF) (Corynebacterium glutamicum, UniProt Q8NRE2, F152A); test: TLC detection of adenine released from AMP; assay type: biochemical; settings: 20 mM AMP, 36 mM Tris-HCl pH 8.0, 23 μM enzyme, 6 h
T3 construct: gene Cgl1110; full length, pET30a with C-terminal 6xHis, E. coli BL21(DE3), hexamer; residues 1-39 disordered in crystal
T3 sequence (Q8NRE2 entry or part of it F152A): as the sequence (Q8NRE2 entry or part of it D177A) above, with F152A, A177D counted along it

[4] = target: T4, Cg1261ΔDNR (CgLOGIIΔDNR) (Corynebacterium glutamicum, UniProt Q8NRE2); test: TLC detection of adenine released from AMP; assay type: biochemical; settings: 20 mM AMP, 36 mM Tris-HCl pH 8.0, 23 μM enzyme, 30 °C
T4 construct: gene Cgl1110; E. coli expressed, hexamer

[5] = target: T5, Cg1261 (CgLOGII, CgLOGIIF) (Corynebacterium glutamicum, UniProt Q8NRE2, M185A); test: TLC detection of adenine released from AMP; assay type: biochemical; settings: 20 mM AMP, 36 mM Tris-HCl pH 8.0, 23 μM enzyme, 6 h
T5 construct: gene Cgl1110; full length, pET30a with C-terminal 6xHis, E. coli BL21(DE3), hexamer; residues 1-39 disordered in crystal
T5 sequence (Q8NRE2 entry or part of it M185A): as the sequence (Q8NRE2 entry or part of it D177A) above, with A177D, M185A counted along it

[6] = target: T6, Cg1261 (CgLOGII, CgLOGIIF) (Corynebacterium glutamicum, UniProt Q8NRE2); test: TLC detection of adenine released from AMP; assay type: biochemical; settings: 20 mM AMP, 36 mM Tris-HCl pH 8.0, 23 μM enzyme, 30 °C
T6 construct: gene Cgl1110; full length, pET30a with C-terminal 6xHis, E. coli BL21(DE3), hexamer; residues 1-39 disordered in crystal
T6 sequence (Q8NRE2 1-256): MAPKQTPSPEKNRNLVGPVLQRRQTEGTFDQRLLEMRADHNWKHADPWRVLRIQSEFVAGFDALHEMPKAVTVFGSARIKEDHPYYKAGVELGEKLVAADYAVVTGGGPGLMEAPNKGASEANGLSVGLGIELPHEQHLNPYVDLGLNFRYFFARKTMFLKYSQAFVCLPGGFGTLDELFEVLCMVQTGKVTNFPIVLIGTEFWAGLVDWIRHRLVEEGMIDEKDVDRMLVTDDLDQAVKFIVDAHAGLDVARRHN

[7] = target: T7, Cg1261 (CgLOGII, CgLOGIIF) (Corynebacterium glutamicum, UniProt Q8NRE2, F153A); test: TLC detection of adenine released from AMP; assay type: biochemical; settings: 20 mM AMP, 36 mM Tris-HCl pH 8.0, 23 μM enzyme, 6 h
T7 construct: gene Cgl1110; full length, pET30a with C-terminal 6xHis, E. coli BL21(DE3), hexamer; residues 1-39 disordered in crystal
T7 sequence (Q8NRE2 entry or part of it F153A): as the sequence (Q8NRE2 entry or part of it D177A) above, with F153A, A177D counted along it

[8] = target: Cg1261 (CgLOGII), full-length, from Corynebacterium glutamicum ATCC 13032 (Corynebacterium glutamicum ATCC 13032); test: SAXS; in solution, 4 °C, 0.5 ~4.5 mg/mL; molecular mass by the QR method
[9] = target: Cg1261 (CgLOGII), full-length, from Corynebacterium glutamicum ATCC 13032 (Corynebacterium glutamicum ATCC 13032); test: SEC; analytical, Superdex 200 10/300, 150 mM NaCl, 1 mL of 3 mg/ml; masses from a calibration curve of standards
[10] = target: Cg1261 (CgLOGII), full-length, from Corynebacterium glutamicum ATCC 13032 (Corynebacterium glutamicum ATCC 13032); test: crystal structure; CgLOGII crystals, space group C222_(1), three molecules in the asymmetric unit; hexamer generated by crystallographic symmetry; 1.95 Å
[11] = target: Cg1261 DNR-truncated (Cg1261ΔDNR) (Corynebacterium glutamicum ATCC 13032); test: SAXS; in solution, 4 °C, 0.5 ~4.5 mg/mL; molecular mass by the QR method
[12] = target: Cg1261 DNR-truncated (Cg1261ΔDNR) (Corynebacterium glutamicum ATCC 13032); test: SEC; analytical, Superdex 200 10/300, 150 mM NaCl, 1 mL of 3 mg/ml; masses from a calibration curve of standards
[13] = target: CgLOG (Cg2612) from Corynebacterium glutamicum (Corynebacterium glutamicum); test: as above

Compound: Nc1ncnc2c1ncn2[C@@H]1O[C@H](COP(=O)(O)O)[C@@H](O)[C@H]1O [AMP]
- TLC detection of adenine released from AMP [1]: Asp177Ala substitution resulted in an almost complete loss of the activity
- TLC detection of adenine released from AMP [2]: Tt1465 hydrolyzed AMP into an adenine base and ribose 5-phosphate
- TLC detection of adenine released from AMP [3]: such as Phe152, Phe153, and Met185, substituted with alanine still showed the activity
- TLC detection of adenine released from AMP [4]: Cg1261ΔDNR showed the same level of phosphoribohydrolase activity as Cg1261
- TLC detection of adenine released from AMP [5]: such as Phe152, Phe153, and Met185, substituted with alanine still showed the activity
- TLC detection of adenine released from AMP [6]: hydrolyzed AMP into an adenine base and ribose 5-phosphate
- TLC detection of adenine released from AMP [7]: such as Phe152, Phe153, and Met185, substituted with alanine still showed the activity

- stoichiometry N [8]: 6
- stoichiometry N [9]: 6
- stoichiometry N [10]: 6
Compound: Cg1261 (CgLOGII), full-length, from Corynebacterium glutamicum ATCC 13032 (enzyme)

- stoichiometry N [11]: 6
- stoichiometry N [12]: 6
Compound: Cg1261 DNR-truncated (Cg1261ΔDNR) (domain or fragment)

- stoichiometry N [13]: 2
Compound: CgLOG (Cg2612) from Corynebacterium glutamicum (enzyme)
